# Experimental data taken from patent US11155582B2, “Antiviral peptide and use thereof” (priority 2018, dated 2021).
# Where “and” joins values, the source holds several entries; their conditions need not be identical. Equal entries are not always repeated. Where no end group is shown, it is not given here.
# How the values were obtained:
# [1] = system: VSV; format: cell-based, Vesicular stomatitis virus (VSV)
# [2] = system: VSV; format: cell-based, Vesicular stomatitis virus (VSV); remark: listed apart in the source
Substance,Amount of virus in culture supernatant [1],observation field occupied by a monolayer of living cells [2] [%]
FFFIIGLIIGLFLVLRVGIHLKKRTLRKNDRKKR-NH2 [Sample 2],4.7 Log10 TCID 50/mL and 3.5 Log10 TCID 50/mL,–
MAIVGIVLLIVVTFLAIKTKKRTLRKNDRKKR-NH2 [Sample 1],4.4 Log10 TCID 50/mL and 5 Log10 TCID 50/mL,–
VLAVIIGFVILMFLIKLIGVLKKRTLRKNDRKKR-NH2 [Sample 3],4.7 Log10 TCID 50/mL and 4.5 Log10 TCID 50/mL,≥ 90
